Target: T1, epidermal growth factor receptor tyrosine kinase (EGFR-TK) (Homo sapiens, UniProt P00533)
T1 construct: commercial purified EGFR (Sigma-Aldrich), called both purified Epidermal Growth Factor Receptor and purified recombinant EGFR tyrosine kinase
Assay: ELISA kinase assay, poly(Glu,Tyr) phosphorylation, anti-phosphotyrosine antibody, […] nm
Assay type: biochemical

T1 sequence (P00533 25-1210): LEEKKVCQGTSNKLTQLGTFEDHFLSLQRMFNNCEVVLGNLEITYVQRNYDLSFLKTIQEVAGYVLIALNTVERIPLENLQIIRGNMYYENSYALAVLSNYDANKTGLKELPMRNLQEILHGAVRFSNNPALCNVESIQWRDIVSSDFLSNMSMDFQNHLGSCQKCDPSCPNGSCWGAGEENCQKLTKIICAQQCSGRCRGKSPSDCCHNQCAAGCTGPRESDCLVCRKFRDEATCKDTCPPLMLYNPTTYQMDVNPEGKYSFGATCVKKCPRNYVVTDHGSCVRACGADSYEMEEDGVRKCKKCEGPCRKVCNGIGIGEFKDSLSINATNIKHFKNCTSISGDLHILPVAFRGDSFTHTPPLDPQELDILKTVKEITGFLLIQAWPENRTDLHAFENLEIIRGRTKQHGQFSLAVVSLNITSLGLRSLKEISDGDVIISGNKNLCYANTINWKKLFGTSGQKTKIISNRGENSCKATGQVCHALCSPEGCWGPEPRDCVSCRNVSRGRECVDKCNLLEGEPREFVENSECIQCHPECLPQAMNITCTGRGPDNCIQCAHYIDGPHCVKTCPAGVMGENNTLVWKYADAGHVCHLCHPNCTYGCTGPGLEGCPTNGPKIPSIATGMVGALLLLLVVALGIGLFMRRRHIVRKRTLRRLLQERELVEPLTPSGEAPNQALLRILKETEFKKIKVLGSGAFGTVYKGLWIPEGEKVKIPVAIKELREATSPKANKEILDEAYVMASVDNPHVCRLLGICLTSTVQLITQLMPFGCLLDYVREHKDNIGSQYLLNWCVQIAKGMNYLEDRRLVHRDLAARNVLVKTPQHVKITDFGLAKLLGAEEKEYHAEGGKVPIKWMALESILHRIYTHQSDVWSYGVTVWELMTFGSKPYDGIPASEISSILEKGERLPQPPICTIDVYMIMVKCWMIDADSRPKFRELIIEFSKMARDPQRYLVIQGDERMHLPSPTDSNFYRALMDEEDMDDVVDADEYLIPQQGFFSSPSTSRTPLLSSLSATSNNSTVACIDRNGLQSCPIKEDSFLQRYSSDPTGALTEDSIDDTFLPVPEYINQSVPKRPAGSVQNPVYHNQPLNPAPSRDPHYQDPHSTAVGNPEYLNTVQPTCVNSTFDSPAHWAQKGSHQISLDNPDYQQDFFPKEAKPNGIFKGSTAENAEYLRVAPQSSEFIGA

Row | IC50 [nM] | SMILES
1 | 37.7 | Fc1ccc(Nc2nc(-c3ccc(Cl)cc3)nc3ccc(Br)cc23)c(F)c1 [3l, 6-Bromo-2-(4-chlorophenyl)-N-(2,4-difluorophenyl)quinazolin-4-amine]
2 | 70 | Fc1ccccc1Nc1nc(-c2ccc(Cl)cc2)nc2ccc(Br)cc12 [3g, 6-Bromo-2-(4-chlorophenyl)-N-(2-fluorophenyl)quinazolin-4-amine]
3 | 59.2 | Fc1ccc(-c2ccc3nc(-c4ccc(Cl)cc4)nc(Nc4ccc(F)cc4F)c3c2)cc1 [4l, [2-(4-Chlorophenyl)-6-(4-fluorophenyl)quinazolin-4-yl]-2,4-difluorophenylamine]
